From patent US20250129091A1, “THIENOPYRROLOTRIAZINE COMPOUNDS, THEIR PREPARATION AND THEIR THERAPEUTIC USE” (Sanofi, priority 2022, published 2025) come the findings set out here.

The assay has as its system NLRP3 inflammasome. Put plainly: IL-1β secretion assay (LPS-primed, nigericin-activated THP-1 cells, MSD readout). It is filed as cell-based. The conditions noted are these: read-out: IL1b IC50. As to the method:
Monocytic THP-1 cells (DSMZ) were maintained in RPMI media (RPMI 1640 Medium (1×) +10% FBS, Eurobio CVFSVFOO—OU). Cells were then plated at 16,000 cells per well in 96-well round bottom cell culture plates (TPP, ref 92097) and maintained with RPMI and 0.1% Bovine Serum Albumin solution. Activation of the NLRP3 inflammasome requires both an NF-kB-dependent priming step and the addition of a NLRP3 activator. The priming step was induced by LPS (10 ng/mL, Sigma, ref:L4391) for 3 h at 37° C., then compound, in a 1:3.10 serial dilution series in DMSO 1:100, and the activator nigericin (Sigma Aldrich, ref: SML1779) 10 μM (final concentration) were added to the cells and co-incubated for 2 h. 50 μL supernatant was removed, and IL-1β levels were monitored using an MSD assay (Electro Chemical Luminescence Immunoassay (ECLI) according to manufacturers' instructions.
IC50 values were calculated from the plot of percentage of inhibition versus the inhibitor concentration by a logistics fit according to: y=A2+(A1−A2)/(1+(x/IC50)^p) where y is the %-inhibition at the inhibitor concentration, x. A1 is the lowest inhibition value, i.e., 0%, and A2 the maximum inhibition value, i.e., 100%. The exponent, p, is the Hill coefficient. The curve fitting was conducted with an internally developed software.

The mark [1] stands for this setting: Homo sapiens, THP-1, LPS-primed.

Counter-ions that a name gives are not always drawn. Like-named read-outs stand apart in the source and are kept apart here.

For `Cc1ccc(NC(=O)Cn2nc(C(C)C)n3c(cc4ccsc43)c2=O)cn1` [Example 68, 2-(12-isopropyl-9-oxo-3-thia-1,10,11-triazatricyclo[6.4.0.02,6]dodeca-2(6),4,7,11-tetraen-10-yl)-N-(6-methyl-3-pyridyl)acetamide], the IC50 under setting [1] was 2280 nM. For `CC(C)c1nn(CC(=O)NC2C[C@@H]3CN[C@H]2C3)c(=O)c2cc3ccsc3n12` (stereo partly drawn) [Example 88, N-[(1S,4R)-2-azabicyclo[2.2.1]heptan-6-yl]-2-(12-isopropyl-9-oxo-3-thia-1,10,11-triazatricyclo[6.4.0.02,6]dodeca-2(6),4,7,11-tetraen-10-yl)acetamidehydrochloride], the concentration for half-maximal inhibition (IC50) under setting [1] is more than 10000 nM.

Turning to `CC(C)c1nn(CC(=O)Nc2ccc3ncsc3c2)c(=O)c2cc3ccsc3n12` [Example 12, N-(benzo[d]thiazol-6-yl)-2-(8-isopropyl-5-oxothieno[3′,2′:4,5]pyrrolo[1,2-d][1,2,4]triazin-6(5H)-yl)acetamide], the IC50 under setting [1] was found to be 540 nM. On to `CC(C)c1nn(CC(=O)N[C@@H]2CCCN(C(C)C)C2)c(=O)c2cc3ccsc3n12` [Example 48, 2-(12-isopropyl-9-oxo-3-thia-1,10,11-triazatricyclo[6.4.0.02,6]dodeca-2(6),4,7,11-tetraen-10-yl)-N-[(3R)-1-isopropyl-3-piperidyl]acetamide], for which the IC50 under setting [1] was determined as 58.9 nM. Consider `COc1ccc(NC(=O)Cn2nc(C(C)C)n3c(cc4ccsc43)c2=O)cn1` [Example 16, 2-(8-isopropyl-5-oxothieno[3′,2′:4,5]pyrrolo[1,2-d][1,2,4]triazin-6(5H)-yl)-N-(6-methoxypyridin-3-yl)acetamide], for which the IC50 under setting [1] amounted to 1520 nM. In the case of `CCc1nn(CC(=O)N[C@@H]2CCCN(C)C2)c(=O)c2cc3ccsc3n12` [Example 73, 2-(12-ethyl-9-oxo-3-thia-1,10,11-triazatricyclo[6.4.0.02,6]dodeca-2(6),4,7,11-tetraen-10-yl)-N-[(3R)-1-methyl-3-piperidyl]acetamide], under setting [1], the IC50 is more than 10000 nM. In the case of `CC(=O)N1CCC[C@@H](NC(=O)Cn2nc(C(C)C)n3c(cc4ccsc43)c2=O)C1` [Example 42, (R)—N-(1-acetylpiperidin-3-yl)-2-(8-isopropyl-5-oxothieno[3′,2′:4,5]pyrrolo[1,2-d][1,2,4]triazin-6(5H)-yl)acetamide], the IC50 under setting [1] was 1150 nM. For the compound `CC(C)c1nn(CC(=O)N[C@@H]2CCCCN(C3CC3)C2)c(=O)c2cc3ccsc3n12` [Example 61, N-[(3R)-1-cyclopropylazepan-3-yl]-2-(12-isopropyl-9-oxo-3-thia-1,10,11-triazatricyclo [6.4.0.02,6]dodeca-2(6),4,7,11-tetraen-10-yl)acetamide], the IC50 under setting [1] amounted to 159 nM.

`CC(C)(O)c1nn(CC(=O)N[C@@H]2CCCN(C3CC3)C2)c(=O)c2cc3ccsc3n12` [Example 52, (R)—N-(1-cyclopropylpiperidin-3-yl)-2-(8-(2-hydroxypropan-2-yl)-5-oxothieno[3′,2′:4,5]pyrrolo[1,2-d][1,2,4]triazin-6(5H)-yl)acetamide]: the half-inhibitory concentration (IC50) under setting [1] came to 82 nM. The same measure, in the same setting: under `CC(C)c1nn(CC(=O)Nc2ccncn2)c(=O)c2cc3ccsc3n12` [Example 66, 2-(12-isopropyl-9-oxo-3-thia-1,10,11-triazatricyclo[6.4.0.02,6]dodeca-2(6),4,7,11-tetraen-10-yl)-N-pyrimidin-4-yl-acetamide] stands 2070 nM. Regarding `CC(O)c1nn(CC(=O)N[C@@H]2CCCN(C3CCC3)C2)c(=O)c2cc3ccsc3n12` (single isomer, unassigned) [Example 50], under “LPS-primed”, the IC50 is 650 nM. Consider `COCC(C)N1CCC[C@@H](NC(=O)Cn2nc(C(C)C)n3c(cc4ccsc43)c2=O)C1` (stereo partly drawn) [Example 64, 2-(8-isopropyl-5-oxothieno[3′,2′:4,5]pyrrolo[1,2-d][1,2,4]triazin-6(5H)-yl)-N-((3R)-1-(1-methoxypropan-2-yl)piperidin-3-yl)acetamide], for which, under setting [1], the IC50 is 109 nM. With `CC(C)c1nn(CC(=O)Nc2cncs2)c(=O)c2cc3cc(Cl)sc3n12` [Example 7, 2-(2-chloro-8-isopropyl-5-oxothieno[3′,2′:4,5]pyrrolo[1,2-d][1,2,4]triazin-6(5H)-yl)-N-(thiazol-5-yl)acetamide], under setting [1], the IC50 was found to be 1790 nM. Regarding `CC(C)c1nn(CC(=O)NCC2CC(=O)N(C(C)(C)C)C2)c(=O)c2cc3ccsc3n12` (stereo not shown) [Example 55, N-[(1-tert-butyl-5-oxo-pyrrolidin-3-yl)methyl]-2-(12-isopropyl-9-oxo-3-thia-1,10,11-triazatricyclo[6.4.0.02,6]dodeca-2(6),4,7,11-tetraen-10-yl)acetamide], the IC50 under setting [1] was determined as 3230 nM. In the case of `CC(C)c1nn(CC(=O)NC2CCC(=O)N(C)C2)c(=O)c2cc3ccsc3n12` (stereo not shown) [Example 47, 2-(8-isopropyl-5-oxothieno[3′,2′:4,5]pyrrolo[1,2-d][1,2,4]triazin-6(5H)-yl)-N-(1-methyl-6-oxopiperidin-3-yl)acetamide], under setting [1], the IC50 is 1030 nM. `CC(C)c1nn(CC(=O)Nc2ccncc2)c(=O)c2cc3ccsc3n12` [Example 67, 2-(12-isopropyl-9-oxo-3-thia-1,10,11-triazatricyclo[6.4.0.02,6]dodeca-2(6),4,7,11-tetraen-10-yl)-N-(4-pyridyl)acetamide]: the concentration for half-maximal inhibition (IC50) under setting [1] is 446 nM.

For the compound `CC(=O)NCC12CC(NC(=O)Cn3nc(C(C)C)n4c(cc5ccsc54)c3=O)(C1)C2` [Example 74, N-[3-(acetamidomethyl)bicyclo[1.1.1]pentan-1-yl]-2-(8-isopropyl-5-oxothieno[3′,2′:4,5]pyrrolo[1,2-d][1,2,4]triazin-6(5H)-yl)acetamide], the IC50 under setting [1] is 344 nM. As to `CC(O)c1nn(CC(=O)N[C@@H]2CCCN(C3CC3)C2)c(=O)c2cc3ccsc3n12` (single isomer, unassigned) [Example 51], where the note is “LPS-primed”, the 50% inhibitory concentration (IC50) is more than 10000 nM.

Regarding `COCc1nn(CC(=O)N[C@@H]2CCCN(C3CC3)C2)c(=O)c2cc3ccsc3n12` [Example 33, (R)—N-(1-cyclopropylpiperidin-3-yl)-2-(8-(methoxymethyl)-5-oxothieno[3′,2′:4,5]pyrrolo[1,2-d][1,2,4]triazin-6(5H)-yl)acetamide 2,2,2-trifluoroacetate], the half-inhibitory concentration (IC50) under setting [1] was found to be 2750 nM. Consider `CC(C)c1nn(CC(=O)NC2CC3(C2)CN(C)C3)c(=O)c2cc3ccsc3n12` [Example 83, N-(2-methyl-2-azaspiro[3.3]heptan-6-yl)-2-(8-isopropyl-5-oxothieno[3′,2′:4,5]pyrrolo[1,2-d][1,2,4]triazin-6(5H)-yl)acetamide], for which, under setting [1], the IC50 stood at 1880 nM.

As for `CC(O)c1nn(CC(=O)N[C@@H]2CCCN(C3CCC3)C2)c(=O)c2cc3ccsc3n12` (single isomer, unassigned) [Example 81], the half-inhibitory concentration (IC50) (LPS-primed) is more than 10000 nM. On to `CC(C)c1nn(CC(=O)N[C@@H]2CCCN(CC#N)C2)c(=O)c2cc3ccsc3n12` [Example 75, N-[(3R)-1-(cyanomethyl)piperidin-3-yl]-2-(8-isopropyl-5-oxothieno[3′,2′:4,5]pyrrolo[1,2-d][1,2,4]triazin-6(5H)-yl)acetamide], for which the IC50 under setting [1] turned out to be 157 nM.

Turning to `CC(C)c1nn(CC(=O)NC2CCCN(C3CCC3(C)C)C2)c(=O)c2cc3ccsc3n12` (racemic) [Example 57, 2-(12-isopropyl-9-oxo-3-thia-1,10,11-triazatricyclo[6.4.0.02,6]dodeca-2(6),4,7,11-tetraen-10-yl)-N-[rac-(3R)-1-(2,2-dimethylcyclobutyl)-3-piperidyl]acetamide], the 50% inhibitory concentration (IC50) under setting [1] is 1010 nM. As for `CC(C)c1nn(CC(=O)N[C@@H]2CCCN(C3COC3)C2)c(=O)c2cc3ccsc3n12` [Example 40, (R)-2-(8-isopropyl-5-oxothieno[3′,2′:4,5]pyrrolo[1,2-d][1,2,4]triazin-6(5H)-yl)-N-(1-(oxetan-3-yl)piperidin-3-yl)acetamide], the half-maximal inhibitory concentration (IC50) under setting [1] came to 259 nM. `CC(C)c1nn(CC(=O)NC2CN3CCC2CC3)c(=O)c2cc3ccsc3n12` (stereo not shown) [Example 39, 2-(8-isopropyl-5-oxothieno[3′,2′:4,5]pyrrolo[1,2-d][1,2,4]triazin-6(5H)-yl)-N-(quinuclidin-3-yl)acetamide]: for the setting “Homo sapiens, LPS-primed”, the IC50 is 2230 nM.

Regarding `COCc1nn(CC(=O)N[C@@H]2CCCN(C3CC3)C2)c(=O)c2cc3cc(Cl)sc3n12` [Example 30, (R)-2-(2-chloro-8-(methoxymethyl)-5-oxothieno[3′,2′:4,5]pyrrolo[1,2-d][1,2,4]triazin-6(5H)-yl)-N-(1-cyclopropylpiperidin-3-yl)acetamide formate], under setting [1], the IC50 was 1200 nM.

In the case of `CC(C)c1nn(CC(=O)NC2CCN(C(C)(C)C)C2)c(=O)c2cc3ccsc3n12` (racemic) [Example 87, 2-(12-isopropyl-9-oxo-3-thia-1,10,11-triazatricyclo[6.4.0.02,6]dodeca-2(6),4,7,11-tetraen-10-yl)-N-[rac-(3R)-1-tert-butylpyrrolidin-3-yl]acetamide], the IC50 under setting [1] was more than 10000 nM. For `CC(C)c1nn(CC(=O)Nc2cccnc2)c(=O)c2cc3ccsc3n12` [Example 56, 2-(12-isopropyl-9-oxo-3-thia-1,10,11-triazatricyclo[6.4.0.02,6]dodeca-2(6),4,7,11-tetraen-10-yl)-N-(3-pyridyl)acetamide], the IC50 under setting [1] turned out to be 1470 nM.
